From patent US12156860B2, “Disorders implicating PUFA oxidation” (BioJiva LLC, priority 2011, dated 2024)

How the values were obtained:
[1] = tested on: NASH (MCD diet) rats; assay: NASH induced by methionine and choline deficient diet; type: in vivo, Rattus norvegicus, Wistar; conditions: daily over three months
Method: (§1) Fifty male heterozygous rats, 45-days-old, from the Rattus norvegicus species and Wistar lineage are kept in polypropylene cages, in groups of five animals, under a 12 h-clear/dark cycle and under controlled temperature conditions. The induction of NASH is carried out through a diet deficient in methionine and choline (MCD) according to known procedures (See Rogers A E, Newberne P M. Alcoholic and nutritional fatty liver and cirrhosis. Am J Pathol. 1973; 73:817-20). […] During the study period, the animals are weighed on a weekly basis and the drugs dose is readjusted as necessary. On the first day of the study, besides determining the animals' weight, their blood is collected through retro-orbital plexus puncture for biochemical analysis: alanine-aminotransferase (ALT) and aspartate-aminotransferase (AST) (colorimetric test, using the Labtest kit). One day after concluding the induction period and compound administration (90 days), animals are sacrificed by decapitation. Once more, each animal's blood is collected for biochemical analysis. Then, laparotomy with total hepatectomy and liver preparation are carried out for lipoperoxidation (LPO) and histological analysis. Liver tissue samples are analyzed using the thiobarbituric-acid reactant substance (TBARS) measurement according to known methods (See Lowry et al. Protein measurement with the folin phenol reagent. J Biol Chem. 1951; 193:265-75) and the results are expressed in nmol of malondialdehyde/mg of protein. Slides with liver fragments are also dyed with hematoxilin-eosine and picrosirius, in order to evaluate the fibrosis level, and with Perls to evaluate the presence of iron stores, having been examined by an only pathologist blinded to the animals' data. The minimum histological criterion for NASH diagnosis is the presence of hepatocellular ballooning-related steatosis, involving zone 3 and lobular inflammatory infiltrate. Mallory corpuscles and sinusoidal fibrosis, involving zone 3 might be present or not. The graduation of both necroinflammatory and fibrosis activity is carried out according to known classifications (See Brunt E M, Janney C G, Di Bisceglie A M, Neuschwander-Tetri B A, Bacon B R. Nonalcoholic steatohepatitis: a proposal for grading and staging the histological lesions. Am J Gastroenterol. 1999; 94:2467-74).

[2] = tested on: rat hearts; assay: Langendorf isolated heart perfusion model, echo- and electrocardiography; type: in vivo; conditions: rats, 8 weeks supplementation
Method: Test compounds disclosed herein can also be assessed using the Langendorf isolated heart perfusion model. […] Following the treatment period, rat hearts are analyzed by echocardiography for measurement of muscle thickness of the left ventricle, left atrium, right ventricle, and right atrium and electrocardiography for measuring electrical activity. After live evaluation, rats are humanely sacrificed and their hearts isolated and connected to the Langendorf isolated perfusion system (See Jennings et al., Am. Surg. 2004; 70(9), 797-800). Left ventricular pressure is then measured with a left ventricular balloon. Coronary flow is also measured. Cardiac function is further assessed by determining the effect of administration of test compounds on the rate of contraction and relaxation of the heart. To determine whether any observed effects on cardiac function are due to the effect of the test compound on mitochondrial function, mitochondrial activity pre-ischemia and post-ischemia is assessed for each of the treatment groups.

[3] = tested on: Wild-type yeast cells; assay: C11-Bodipy 581/591 lipid peroxidation in copper-stressed yeast; type: cell-based, S. cerevisiae; conditions: 200 μM fatty acid 2 hours, then 50 μM CuSO4 60 min
Method: Wild-type yeast cells were treated as described above except the yeast were treated with 200 μM of the designated fatty acid for 2 hours, washed with sterile water, and were either not treated (triangles) or treated with 50 μM CuSO4 (squares) at room temperature. After 60 min of copper treatment cells were treated with 8 μM C11-Bodipy 581/591 for 30 min at room temperature. Four 100 μl aliquots were plated in a 96-well plate and the fluorescence was measured.

[4] = Oxidation of mixtures of LA and D2-LA in chlorobenzene; type: physicochemical
Method: FIG. 8. Dependence of the rate of oxidation of the mixture of LA and D2-LA in chlorobenzene solution on mixture composition. Conditions: [LA]+[11,11-d2-LA]=0.775 M; [AMVN]=0.0217 M; 37° C. RIN=(1.10±0.08)×10^−7 M/sec.
To simulate the likely in vivo conditions, the kinetics of the oxidation of the mixtures of D2-LA and LA were studied (FIG. 8). In the experiments, the concentration of LA plus 11,11-d2-LA was 0.775 M; the concentration of AMVN was 0.0217 M; and the reactions were carried out at 37° C. The results afforded an RIN of 1.10±0.08×10^−7 M/sec.

[5] = tested on: alcoholic liver disease rats; assay: Alcoholic liver disease and cirrhosis induced by 5% ethanol diet; type: in vivo, Rattus norvegicus, Wistar; conditions: 5% ethanol diet rats, daily over three months
Method: as §1, with “alcoholic liver disease and cirrhosis” for “NASH”, “containing 5% ethanol […].” for “deficient in methionine and choline (MCD) according to known procedures (See Rogers A E, Newberne P M. Alcoholic and nutritional fatty liver and cirrhosis. Am J Pathol. 1973; 73:817-20).”, “days), the” for “days),”, “data.” for “data. The minimum histological criterion for NASH diagnosis is the presence of hepatocellular ballooning-related steatosis, involving zone 3 and lobular inflammatory infiltrate. Mallory corpuscles and sinusoidal fibrosis, involving zone 3 might be present or not. The graduation of both necroinflammatory and fibrosis activity is carried out according to known classifications (See Brunt E M, Janney C G, Di Bisceglie A M, Neuschwander-Tetri B A, Bacon B R. Nonalcoholic steatohepatitis: a proposal for grading and staging the histological lesions. Am J Gastroenterol. 1999; 94:2467-74).”

## [2H]C([2H])(/C=C\CCCCC)/C=C\CCCCCCCC(=O)O [D2-LA, 11,11-Dideutero-cis,cis-9,12-Octadecadienoic acid]
[1]
  amount of MDA in liver samples (TBARS): reduce the amount of MDA found in liver samples
  histological signs of NASH: reverse the histological signs of NASH
[2]
  symptoms and markers associated with cardiac disorders: reduce symptoms and markers associated with cardiac disorders
[3]
  levels of lipid peroxidation (C11-Bodipy fluorescence): lower levels of lipid peroxidation similar to yeast not treated with PUFA
[4]; data not shown
  effect during oxidation of mixture with non-deuterated methyl linoleate: qualitatively similar effect
[4]; mixtures of D2-LA and LA
  effect on autoxidation of non-deuterated LA in mixture: ‘protects’ the non-deuterated LA against autoxidation
[5]
  amount of MDA in liver samples (TBARS): reduce the amount of MDA found in liver samples
  histological signs of fatty liver disease: reverse the histological signs of fatty liver disease
